According to US20120283334A1, “Treatment of Viral Infections” (Biocopea, Ltd., priority 2009, published 2012):
Like-named read-outs stand apart in the source and are kept apart here.

Experiments:
[1] = test system: TNF-α; test: TNF-α levels in PBMC under LPS stimulation (ELISA); type: cell-based, human; conditions: for Percentage TNF-α levels compared to 100% untreated cells under LPS stimulation: PBMC; for concentration of TNF-α in LPS stimulated cells: text summary of Table 2, concentration not stated
Experimental: 1) Isolation, Culture and Treatment of Peripheral Blood Mononuclear Cells (PBMC) Blood was collected in 6 ml vacutainers (green cap). Blood was processed within 2 h of collection. Materials used: Non-coagulated blood; FCS; RPMI-1640 media supplemented with L-Gln and P/S; PBS; sterile tips and pipettes; Sterile 15 ml Falcon; Sterile V-bottom 96-well plates with lids; Neubauer chamber; Trypan Blue solution; 70% IPA solution; Accuspin-Histopaque tubes (Sigma, A7054) Procedure: • 1. Dilute samples 1:1 in sterile PBS; • 2. Add 30 ml of diluted blood into an Accuspin-Histopaque tube (Sigma, A7054); • 3. Centrifuge at 800 rcf 15min at room temperature (RT); • 4. After centrifugation, the red blood cells will remain at the bottom below the frit. The monocytes (PBMC) will be present on a layer above the frit, with the plasma on top; • 5. Collect the PBMC layer with a pipette into a fresh 15 ml Falcon tube and top up to 15 ml of PBS; • 6. Centrifuge at 250 rcf 10 min at RT; • 7. Discard the supernatant, flick the pellet and add another 10 ml of PBS; • 8. Centrifuge at 250 rcf 10 min at RT; • 9. Repeat steps 7 and 8; • 10. […] Count cells and make a 4×10^6 cell/ml suspension in complete medium. Add 100 μl of cell suspension per well in a V-bottom 96-well plate. Then add 50 μl of stimulant or vehicle in complete media, and 50 μl of drug or vehicle in complete media. Incubate the cells for 24 h at 37° C. 5% CO2; • 12. After incubation, take 60 μl of cell supernatant to measure IFNγ and TNFα by ELISA (OptEIA human IFNγ, cat No. 555142 and human TNF, Cat No. 555212) following manufacturer's instructions (BD Biosciences); The two mitogens that the inventors used to stimulate lymphocytes, and therefore assess immune function, were lipopolysaccharide (LPS) and Concanavalin A (Con A). LPS acts on B cells but not T cells, whereas Con A acts on T cells but not B cells. The effects of two embodiments of the compound represented by formula I, i.e. dobutamine (referred to in the tables as BC1021) and ritodrine (BC1023), on the levels of IFN-γ and TNF-α were investigated in LPS and Con A stimulated assays. Peripheral Blood Mononuclear Cells (PMBC) were independently administered with each mitogen, LPS or Con A, and then treated with either dobutamine or ritodrine. Control experiments were conducted in which no LPS or Con A was added, such that any effect on the levels of IFN-γ and TNF-α could be directly attributed to the presence of the test compound, dobutamine or ritodrine. The values in the Tables are expressed as the percentage value of the LPS only control. […] Standard deviation values (s.d.) are given underneath each value of expressed IFN-γ levels.

[2] = test system: TNF-α; test: TNF-α levels in PBMC under Con A stimulation (ELISA); type: cell-based, human; conditions: for Percentage TNF-α levels compared to 100% untreated cells under Con A stimulation: PBMC; for concentration of TNF-α in Con A stimulated cells: text summary of Table 3, concentration not stated
Experimental: (§1) 1) Isolation, Culture and Treatment of Peripheral Blood Mononuclear Cells (PBMC) Blood was collected in 6 ml vacutainers (green cap). Blood was processed within 2 h of collection. Materials used: Non-coagulated blood; FCS; RPMI-1640 media supplemented with L-Gln and P/S; PBS; sterile tips and pipettes; Sterile 15 ml Falcon; Sterile V-bottom 96-well plates with lids; Neubauer chamber; Trypan Blue solution; 70% IPA solution; Accuspin-Histopaque tubes (Sigma, A7054) Procedure: • 1. Dilute samples 1:1 in sterile PBS; • 2. Add 30 ml of diluted blood into an Accuspin-Histopaque tube (Sigma, A7054); • 3. Centrifuge at 800 rcf 15min at room temperature (RT); • 4. After centrifugation, the red blood cells will remain at the bottom below the frit. The monocytes (PBMC) will be present on a layer above the frit, with the plasma on top; • 5. Collect the PBMC layer with a pipette into a fresh 15 ml Falcon tube and top up to 15 ml of PBS; • 6. Centrifuge at 250 rcf 10 min at RT; • 7. Discard the supernatant, flick the pellet and add another 10 ml of PBS; • 8. Centrifuge at 250 rcf 10 min at RT; • 9. Repeat steps 7 and 8; • 10. […] Count cells and make a 4×10^6 cell/ml suspension in complete medium. Add 100 μl of cell suspension per well in a V-bottom 96-well plate. Then add 50 μl of stimulant or vehicle in complete media, and 50 μl of drug or vehicle in complete media. Incubate the cells for 24 h at 37° C. 5% CO2; • 12. After incubation, take 60 μl of cell supernatant to measure IFNγ and TNFα by ELISA (OptEIA human IFNγ, cat No. 555142 and human TNF, Cat No. 555212) following manufacturer's instructions (BD Biosciences); The two mitogens that the inventors used to stimulate lymphocytes, and therefore assess immune function, were lipopolysaccharide (LPS) and Concanavalin A (Con A). LPS acts on B cells but not T cells, whereas Con A acts on T cells but not B cells. The effects of two embodiments of the compound represented by formula I, i.e. dobutamine (referred to in the tables as BC1021) and ritodrine (BC1023), on the levels of IFN-γ and TNF-α were investigated in LPS and Con A stimulated assays. Peripheral Blood Mononuclear Cells (PMBC) were independently administered with each mitogen, LPS or Con A, and then treated with either dobutamine or ritodrine. Control experiments were conducted in which no LPS or Con A was added, such that any effect on the levels of IFN-γ and TNF-α could be directly attributed to the presence of the test compound, dobutamine or ritodrine.

[3] = test system: IFN-γ; test: IFN-γ levels in PBMC under Con A stimulation (ELISA); type: cell-based, human; conditions: for Percentage IFN-γ levels compared to 100% untreated cells under Con A stimulation: PBMC; for concentration of IFN-γ in Con A stimulated cells: text summary of Table 4, concentration not stated
Experimental: as §1

[4] = test system: Con A stimulated cells; test: Percentage cell survival of Con A stimulated cells; conditions: for Percentage cell survival compared to 100% untreated cells under Con A stimulation: compound only (no Con A)
[5] = test system: Con A stimulated cells; conditions: for Percentage cell survival compared to 100% untreated cells under Con A stimulation: human
[6] = compound only (no Con A), 10 μM
[7] = compound only (no Con A), 100 μM

Question: What does the source list for `CC(CCc1ccc(O)cc1)NCCc1ccc(O)c(O)c1` (stereo not drawn) [BC1021, dobutamine]?
Answer: Percentage TNF-α levels compared to 100% untreated cells under LPS stimulation ([1]; + LPS, compound 1 μM, 24 h): 91.20%; Percentage TNF-α levels compared to 100% untreated cells under LPS stimulation ([1]; + LPS, compound 10 μM, 24 h): 84.79%; Percentage TNF-α levels compared to 100% untreated cells under LPS stimulation ([1]; + LPS, compound 100 μM, 24 h): 81.41%; Percentage TNF-α levels compared to 100% untreated cells under LPS stimulation ([1]; compound only (no LPS), 1 μM): −80.18%; Percentage TNF-α levels compared to 100% untreated cells under LPS stimulation ([1]; compound only (no LPS), 10 μM): −145.07%; Percentage TNF-α levels compared to 100% untreated cells under LPS stimulation ([1]; compound only (no LPS), 100 μM): −151.15%; concentration of TNF-α in LPS stimulated cells [1]: decreased; Percentage TNF-α levels compared to 100% untreated cells under Con A stimulation ([2]; + Con A, compound 1 μM, 24 h): 103.05%; Percentage TNF-α levels compared to 100% untreated cells under Con A stimulation ([2]; + Con A, compound 10 μM, 24 h): 102.36%; Percentage TNF-α levels compared to 100% untreated cells under Con A stimulation ([2]; + Con A, compound 100 μM, 24 h): −33.95%; Percentage TNF-α levels compared to 100% untreated cells under Con A stimulation ([2]; compound only (no Con A), 1 μM): −35.44%; Percentage TNF-α levels compared to 100% untreated cells under Con A stimulation [2, 6]: −33.21%; Percentage TNF-α levels compared to 100% untreated cells under Con A stimulation [2, 7]: −42.84%; concentration of TNF-α in Con A stimulated cells [2]: decreased; Percentage IFN-γ levels compared to 100% untreated cells under Con A stimulation ([3]; + Con A, compound 1 μM, 24 h): 63.40%; Percentage IFN-γ levels compared to 100% untreated cells under Con A stimulation ([3]; + Con A, compound 10 μM, 24 h): 32.77%; Percentage IFN-γ levels compared to 100% untreated cells under Con A stimulation ([3]; + Con A, compound 100 μM, 24 h): −1.80%; Percentage IFN-γ levels compared to 100% untreated cells under Con A stimulation ([3]; + Con A, compound 100 μM, 24 h, listed as dobutamine): significant effect in decreasing; Percentage IFN-γ levels compared to 100% untreated cells under Con A stimulation ([3]; compound only (no Con A), 1 μM): −2.61%; Percentage IFN-γ levels compared to 100% untreated cells under Con A stimulation [3, 6]: −2.51%; Percentage IFN-γ levels compared to 100% untreated cells under Con A stimulation [3, 7]: −3.26%; concentration of IFN-γ in Con A stimulated cells [3]: decreased; Percentage cell survival compared to 100% untreated cells under Con A stimulation ([4]; 1 μM): 76.89%; Percentage cell survival compared to 100% untreated cells under Con A stimulation ([4]; 10 μM): 69.80%; Percentage cell survival compared to 100% untreated cells under Con A stimulation ([4]; 100 μM): 44.95%; percentage cell survival compared to the untreated controls ([4]; text summary of Table 5, all doses): higher

Question: How did the “Percentage TNF-α levels compared to 100% untreated cells under LPS stimulation” value ([1]; + LPS, compound 1 μM, 24 h) turn out when `CC(NCCc1ccc(O)cc1)C(O)c1ccc(O)cc1` (stereo not drawn) [BC1023, ritodrine] was run?
Answer: The value was 62.12%.

Question: And the “Percentage TNF-α levels compared to 100% untreated cells under LPS stimulation” value ([1]; + LPS, compound 10 μM, 24 h)?
Answer: The value was 85.01%.

Question: And the “Percentage TNF-α levels compared to 100% untreated cells under LPS stimulation” value ([1]; + LPS, compound 100 μM, 24 h)?
Answer: The value was 85.74%.

Question: And the “Percentage TNF-α levels compared to 100% untreated cells under LPS stimulation” value ([1]; compound only (no LPS), 1 μM)?
Answer: The value was −29.75%.

Question: And the “Percentage TNF-α levels compared to 100% untreated cells under LPS stimulation” value ([1]; compound only (no LPS), 10 μM)?
Answer: The value was 0.74%.

Question: What about the “Percentage TNF-α levels compared to 100% untreated cells under LPS stimulation” value ([1]; compound only (no LPS), 100 μM) of the same compound?
Answer: The value was −56.57%.

Question: And the “concentration of TNF-α in LPS stimulated cells” value [1]?
Answer: Its value is “decreased”.

Question: What about the “Percentage TNF-α levels compared to 100% untreated cells under Con A stimulation” value ([2]; + Con A, compound 1 μM, 24 h) of the same compound?
Answer: Its value is 103.92%.

Question: And the “Percentage TNF-α levels compared to 100% untreated cells under Con A stimulation” value ([2]; + Con A, compound 10 μM, 24 h)?
Answer: The value was 106.20%.

Question: And the “Percentage TNF-α levels compared to 100% untreated cells under Con A stimulation” value ([2]; + Con A, compound 100 μM, 24 h)?
Answer: The value was 104.93%.

Question: What about the “Percentage TNF-α levels compared to 100% untreated cells under Con A stimulation” value ([2]; compound only (no Con A), 1 μM) of the same compound?
Answer: The value was −5.94%.

Question: And the “Percentage TNF-α levels compared to 100% untreated cells under Con A stimulation” value [2, 6]?
Answer: Its value is −24.69%.

Question: And the “Percentage TNF-α levels compared to 100% untreated cells under Con A stimulation” value [2, 7]?
Answer: Its value is −14.80%.

Question: What about the “concentration of TNF-α in Con A stimulated cells” value [2] of the same compound?
Answer: Its value is “decreased”.

Question: What about the “Percentage IFN-γ levels compared to 100% untreated cells under Con A stimulation” value ([3]; + Con A, compound 1 μM, 24 h) of the same compound?
Answer: The value was 39.93%.

Question: And the “Percentage IFN-γ levels compared to 100% untreated cells under Con A stimulation” value ([3]; + Con A, compound 10 μM, 24 h)?
Answer: The value was 34.25%.

Question: And the “Percentage IFN-γ levels compared to 100% untreated cells under Con A stimulation” value ([3]; + Con A, compound 100 μM, 24 h)?
Answer: Its value is 41.69%.

Question: What about the “Percentage IFN-γ levels compared to 100% untreated cells under Con A stimulation” value ([3]; compound only (no Con A), 1 μM) of the same compound?
Answer: Its value is −0.86%.

Question: What about the “Percentage IFN-γ levels compared to 100% untreated cells under Con A stimulation” value [3, 6] of the same compound?
Answer: The value was −1.52%.

Question: What about the “Percentage IFN-γ levels compared to 100% untreated cells under Con A stimulation” value [3, 7] of the same compound?
Answer: Its value is −1.87%.

Question: And the “concentration of IFN-γ in Con A stimulated cells” value [3]?
Answer: Its value is “decreased”.

Question: What about the “percentage cell survival compared to the untreated controls” value [5] of the same compound?
Answer: The value was “higher”.

Question: What about the “Percentage cell survival compared to 100% untreated cells under Con A stimulation” value ([5]; 1 μM) of the same compound?
Answer: The value was 78.69%.

Question: What about the “Percentage cell survival compared to 100% untreated cells under Con A stimulation” value ([5]; 10 μM) of the same compound?
Answer: Its value is 75.25%.

Question: What about the “Percentage cell survival compared to 100% untreated cells under Con A stimulation” value ([5]; 100 μM) of the same compound?
Answer: The value was 72.56%.
